Laboratory results: PubChem BioAssay (NCI)
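96-well plates; 48 h exposure; 5 concentrations. Endpoints by linear interpolation between flanking doses. Not reached: highest tested concentration assigned. Abbreviation: GI50, concentration required for 50% inhibition of growth. TGI: total growth inhibition.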

Legend:
Test in all cases: inhibition of tumour cell growth, NCI panel, 48 h
[1] = test system: SK-MEL-2 melanoma
[2] = test system: EKVX NSCLC
[3] = test system: HOP-62 NSCLC
[4] = test system: TK-10 renal
[5] = test system: NCI-H460 lung
[6] = test system: RXF 393 renal
[7] = test system: HT29 colon
[8] = test system: CCRF-CEM leukemia
[9] = test system: U251 CNS
[10] = test system: BT-549 breast

Structure (SMILES)	TGI [1] [µM]	TGI [2] [µM]	TGI [3] [µM]	TGI [4] [µM]	TGI [5] [µM]	TGI [6] [µM]	TGI [7] [µM]	TGI [8] [µM]	TGI [9] [µM]	GI50 [3] [µM]	GI50 [9] [µM]	TGI [10] [µM]	GI50 [1] [µM]	GI50 [10] [µM]	GI50 [2] [nM]	GI50 [4] [µM]	GI50 [5] [µM]	GI50 [7] [µM]	GI50 [8] [µM]	GI50 [6] [µM]
CCOC(=O)C1=C(O)c2c(OC)ccc(OC)c2C(=O)C1=O	> 100	> 100	> 100	> 100	> 100	> 100	> 100	> 100	> 100											
Cc1cc2c(=O)cc(-c3ccncc3)oc2c(C(=O)O)c1C	> 100	> 100	> 100	> 100	> 100	> 100	> 100	> 100	> 100											
NC1CC(n2ccc(=O)[nH]c2=O)OC1C(O)CO (centres undefined)	> 100	> 100	> 100	> 100	> 100	> 100	> 100	> 100	> 100											
CCOC(=O)C1C(=O)C(=O)N2CCc3c([nH]c4ccccc34)C12 (centres undefined)	> 100	> 100	> 100	> 100		> 100	> 100	> 100	> 100											
O=c1cccccc1[O-].O=c1cccccc1[O-].O=c1cccccc1[O-].[Dy+3]	> 100	> 100	99.9	> 100	> 100	79	> 100	55.2	> 100	33	24.8									
O=NNc1nc(-c2ccccn2)nc2ccccc12	39.5	> 100	48.1	> 100	> 100		18.7	15.4	> 100			> 100								
CCOC(=O)/C(=C/c1ccc[nH]1)P(=O)(OCC)OCC	> 100	> 100	> 100	> 100	> 100	> 100	> 100	> 100	> 100											
CC(C)c1nc(Cl)c(Cl)c(Cl)n1		29.1	25.9	28.8	48.4	7.97	17.9	9.33	12.8			27.1								
NC(=O)NC(=O)C1CCC(=O)N1S(=O)(=O)c1ccc(Cl)cc1 (centres undefined)	> 100	> 100	> 100	> 100	> 100	> 100	> 100	> 100	> 100											
COc1cc2c(cc1OCCCN1CCN(CCCn3c4ccccc4c4ccccc43)CC1)N=C[C@@H]1CCCN1C2=O	0.539	0.988	2.46	1.07	0.916		0.289	0.118	1.2	0.242	0.0985	0.288	0.159	0.0587	268	0.086	0.23	0.0342	0.0218	
O=[N+]([O-])C1(CO)COC(CCc2ccccc2)OC1 (centres undefined)	> 100	> 100	> 100	> 100	> 100	> 100	> 100	> 100	> 100											
c1csc(-c2[nH]nc3c2CCc2ccccc2-3)c1	37.9		28.7	61.6	34.3	37.4	42.6	73.3	26.3	12.8	11.6	31.9	19.7	16.1		0.862	9.12	15.6	21.7	16.9
O=C(CO[N+](=O)[O-])OCC(=O)c1ccccc1	> 100	> 100	> 100	> 100	> 100	> 100	> 100	> 100	> 100											
Clc1ccc(N=CNc2ccc(-c3nc4ccccc4[nH]3)cc2)cc1	> 100	34.5	> 100	> 100	> 100	> 100			> 100	> 100	20.9	57.3	76.6	20.7	482	7.52	17.7			> 100
Nc1nc(N)c(-c2ccccc2)c(C(=O)Nc2nccs2)n1	> 100	> 100	> 100	> 100	> 100	> 100	> 100	> 100	> 100											
O=C1NC2(CCCCC2)C2=C1CCCCC2	> 100	> 100	> 100	> 100	> 100	> 100	> 100	> 100	> 100											
Cn1c(=O)c(Oc2ccc(F)cc2F)cc2cnc(NC3CCC(O)CC3)nc21 (centres undefined)	> 25		> 25	> 25	> 25	> 25	> 25	> 25	> 25	> 25	> 25	> 25	> 25	> 25		24.6	> 25	> 25	> 25	> 25
COc1cc(COC(=O)NC(Cc2cccs2)C(=O)O)c([N+](=O)[O-])cc1OC (centres undefined)		> 100	> 100	> 100	> 100	> 100	> 100	> 100	> 100			> 100								
CN1C/C(=C\c2ccco2)c2nc(N)nc(-c3ccco3)c2C1	> 100	> 100	> 100	> 100	> 100	> 100	> 100	> 100	> 100											
Cc1c(C(=O)C/C(=N/NC(=O)CC#N)C(N)=O)[n+](=O)c2ccccc2n1[O-]	> 100	> 100	> 100	> 100	> 100	> 100	> 100	> 100	> 100											
Nc1ccc2ncc(Nc3ccc(Cl)c(Cl)c3)nc2c1	> 100	88.9	84.3	> 100	> 100	55.2	34.9	65.6	80.1											
